Experimental data as given in the Kinase Knowledgebase extract (Sharma et al. 2016).

Biological target: MAPK14 (human) (UniProt Q16539)
Test: Inhibition of MAPK14 Kinase Activity

Sequence of MAPK14 (human) (Q16539 whole entry, looked up): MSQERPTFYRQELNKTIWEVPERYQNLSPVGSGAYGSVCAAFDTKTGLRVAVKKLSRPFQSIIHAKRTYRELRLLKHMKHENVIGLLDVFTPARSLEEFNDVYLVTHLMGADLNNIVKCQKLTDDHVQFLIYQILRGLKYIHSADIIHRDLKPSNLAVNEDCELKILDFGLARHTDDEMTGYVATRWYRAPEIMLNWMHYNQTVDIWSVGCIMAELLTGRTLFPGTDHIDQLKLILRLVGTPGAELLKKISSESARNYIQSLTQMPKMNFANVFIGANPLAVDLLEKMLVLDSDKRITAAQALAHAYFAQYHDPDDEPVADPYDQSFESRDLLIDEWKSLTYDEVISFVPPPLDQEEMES

Structure (SMILES)	IC50
Cc1cc(F)ccc1-c1nc(NC(C)(CO)CO)nc2c1ccc(=O)n2-c1c(F)cccc1F	< 10 µM
CCOc1nc(-c2ccc(F)cc2C)c2ccc(=O)n(-c3c(F)cccc3F)c2n1	< 10 µM
Cc1cc(F)ccc1-c1nc(NC2CCOCC2)nc2c1ccc(=O)n2-c1ccccc1F	< 10 µM
Cc1cc(F)ccc1-c1nc(OCCNC(=O)OC(C)(C)C)nc2c1ccc(=O)n2-c1c(F)cccc1F	< 10 µM
CCN(CC)CCNc1nc(-c2ccc(F)cc2C)c2ccc(=O)n(-c3c(F)cccc3F)c2n1	< 10 µM
Cc1cc(F)ccc1-c1nc(NCCc2nnn[nH]2)nc2c1ccc(=O)n2-c1c(F)cccc1F	< 10 µM
Cc1cc(F)ccc1-c1nc(NCCNC(=O)Nc2ccccc2)nc2c1ccc(=O)n2-c1c(F)cccc1F	< 10 µM
Cc1cc(F)ccc1-c1nc(NCCO)nc2c1ccc(=O)n2-c1ccccc1C	< 10 µM
Cc1cc(F)ccc1-c1nc(NC[C@H](C)O)nc2c1ccc(=O)n2C1CCCCC1	< 10 µM
CS(=O)(=O)Nc1nc(-c2ccccc2F)c2ccc(=O)n(-c3ccccc3F)c2n1	< 10 µM
Cc1cc(F)ccc1-c1nc(NS(C)(=O)=O)nc2c1ccc(=O)n2-c1c(F)cccc1F	< 10 µM
Cc1cc(F)ccc1-c1nc(N[C@H]2CC[C@H](O)CC2)nc2c1ccc(=O)n2-c1c(F)cccc1F	< 10 µM
Cc1cc(F)ccc1-c1nc(NCc2ncc[nH]2)nc2c1ccc(=O)n2-c1c(F)cccc1F	< 10 µM
Cc1cc(F)ccc1-c1nc(NCCc2c[nH]cn2)nc2c1ccc(=O)n2-c1c(F)cccc1F	< 10 µM
CCNC(=O)CNc1nc(-c2ccc(F)cc2C)c2ccc(=O)n(-c3c(F)cccc3F)c2n1	< 10 µM
Cc1cc(F)ccc1-c1nc(NCCc2noc(=O)[nH]2)nc2c1ccc(=O)n2-c1c(F)cccc1F	< 10 µM
CCC(C)n1c(=O)ccc2c(-c3ccccc3F)nc(SC)nc21 (centres undefined)	< 10 µM
Cc1cc(F)ccc1-c1nc(OC(CO)CO)nc2c1ccc(=O)n2-c1c(F)cccc1F	< 10 µM
Cc1cc(F)ccc1-c1nc(NC(CO)CO)nc2c1ccc(=O)n2-c1ccccc1C	< 10 µM
Cc1cc(F)ccc1-c1nc(NC[C@H](O)c2ccccc2)nc2c1ccc(=O)n2-c1c(F)cccc1F	< 10 µM
Cc1cc(F)ccc1-c1nc(NCC(F)(F)F)nc2c1ccc(=O)n2-c1ccccc1F	< 10 µM
Cc1cc(F)ccc1-c1nc(N[C@@H](C)CO)nc2c1ccc(=O)n2-c1ccccc1F	< 10 µM
CSc1nc(-c2ccccc2F)c2ccc(=O)n(-c3ccccc3F)c2n1	< 10 µM

Structure (SMILES)	IC50
Cc1cc(F)ccc1-c1nc(S(C)(=O)=O)nc2c1ccc(=O)n2-c1c(C)cccc1C	< 10 µM
Cc1cc(F)ccc1-c1nc(NC2CCOC2)nc2c1ccc(=O)n2-c1c(F)cccc1F (centres undefined)	< 10 µM
O=c1ccc2c(-c3ccccc3Cl)nc(NC(CO)CO)nc2n1-c1ccccc1Cl	< 10 µM
Cc1cc(F)ccc1-c1nc(NC2CCOCC2)nc2c1ccc(=O)n2-c1c(F)cccc1F	< 10 µM
Cc1cc(F)ccc1-c1nc(NC(CO)CO)nc2c1ccc(=O)n2CC1CC1	< 10 µM
Cc1cc(F)ccc1-c1nc(N[C@H](C)CO)nc2c1ccc(=O)n2-c1c(F)cccc1F	< 10 µM
CCOC(=O)CNc1nc(-c2ccccc2Cl)c2ccc(=O)n(C(CC)CC)c2n1	< 10 µM
CSc1nc(NC2CCCCC2)c(C=O)c(-c2ccc(F)cc2C)n1	< 10 µM
Cc1nnc(CNc2nc(-c3ccc(F)cc3C)c3ccc(=O)n(-c4c(F)cccc4F)c3n2)[nH]1	< 10 µM
Cc1cc(F)ccc1-c1nc(NC(C)(C)CO)nc2c1ccc(=O)n2-c1c(F)cccc1F	< 10 µM
Cc1cc(F)ccc1-c1nc(N2CCOCC2)nc2c1ccc(=O)n2-c1ccccc1C	< 10 µM
Cc1cc(F)ccc1-c1nc(NCC(=O)N2CCOCC2)nc2c1ccc(=O)n2-c1c(F)cccc1F	< 10 µM
Cc1cc(F)ccc1-c1nc(NCCNC(=O)C(C)(C)C)nc2c1ccc(=O)n2-c1c(F)cccc1F	< 10 µM
CS(=O)(=O)c1nc(-c2ccccc2Cl)c2ccc(=O)n(-c3ccccc3Cl)c2n1	< 10 µM
Cc1cc(F)ccc1-c1nc(NCC(F)(F)F)nc2c1ccc(=O)n2-c1c(F)cccc1F	< 10 µM
Cc1cc(F)ccc1-c1nc(Nc2c[nH]c(=O)[nH]c2=O)nc2c1ccc(=O)n2-c1c(F)cccc1F	< 10 µM
Cc1cc(F)ccc1-c1nc(OCCN(C)S(C)(=O)=O)nc2c1ccc(=O)n2-c1c(F)cccc1F	< 10 µM
Cc1cc(F)ccc1-c1nc(NC(CO)(CO)CO)nc2c1ccc(=O)n2-c1c(F)cccc1F	< 10 µM
Cc1cc(F)ccc1-c1nc(N[C@@H](C)CO)nc2c1ccc(=O)n2-c1ccccc1C	< 10 µM
Cc1cc(F)ccc1-c1nc(N[C@H]2CCCC[C@@H]2O)nc2c1ccc(=O)n2-c1c(F)cccc1F	< 10 µM
CSc1nc(-c2ccc(F)cc2C)c2ccc(=O)n(CC3CC3)c2n1	< 10 µM
Cc1cc(F)ccc1-c1nc(NCC(C)(C)O)nc2c1ccc(=O)n2-c1c(F)cccc1F	< 10 µM
Cc1cc(F)ccc1-c1nc(N[C@@H]2CS(=O)(=O)C[C@H]2O)nc2c1ccc(=O)n2-c1c(F)cccc1F	< 10 µM

Structure (SMILES)	IC50
Cc1cc(F)ccc1-c1nc(NC(C)(C)CO)nc2c1ccc(=O)n2-c1ccccc1F	< 10 µM
CCN(CC)CCNc1nc(-c2ccccc2Cl)c2ccc(=O)n(-c3ccccc3Cl)c2n1	< 10 µM
CCC(CC)n1c(=O)ccc2c(-c3ccccc3Cl)nc(NCCN(CC)CC)nc21	< 10 µM
Cc1cc(F)ccc1-c1nc(NC(CO)CO)nc2c1ccc(=O)n2-c1c(F)cccc1F	< 10 µM
CSc1nc(-c2ccccc2F)c2ccc(=O)[nH]c2n1	< 10 µM
Cc1cc(F)ccc1-c1nc(NCCN)nc2c1ccc(=O)n2-c1c(F)cccc1F	< 10 µM
CSc1nc(-c2ccccc2)c2ccc(=O)n(-c3ccccc3)c2n1	< 10 µM
Cc1cc(F)ccc1-c1nc(NC(CO)CO)nc2c1ccc(=O)n2C(C)C	< 10 µM
CSc1nc(-c2ccccc2F)c2ccc(=O)n(-c3ccccc3Cl)c2n1	< 10 µM
Cc1cc(F)ccc1-c1nc(NCCCN2CCCC2=O)nc2c1ccc(=O)n2-c1c(F)cccc1F	< 10 µM
Cc1cc(F)ccc1-c1nc(NCC(=O)O)nc2c1ccc(=O)n2-c1c(F)cccc1F	< 10 µM
CCNc1nc(-c2ccc(F)cc2C)c2ccc(=O)n(-c3ccccc3C)c2n1	< 10 µM
Cc1cc(F)ccc1-c1nc(NCCNC(=O)OC(C)(C)C)nc2c1ccc(=O)n2-c1c(F)cccc1F	< 10 µM
Cc1cc(F)ccc1-c1nc(Nc2nnn[nH]2)nc2c1ccc(=O)n2-c1c(F)cccc1F	< 10 µM
Cc1cc(F)ccc1-c1nc(S(C)(=O)=O)nc2c1ccc(=O)n2C1CCCCC1	< 10 µM
CCN(CC)CCNc1nc(-c2ccccc2)c2ccc(=O)n(-c3ccccc3)c2n1	< 10 µM
CCC(CC)n1c(=O)ccc2c(-c3ccccc3Cl)nc(NC(CO)CO)nc21	< 10 µM
Cc1cc(F)ccc1-c1nc(NCCCl)nc2c1ccc(=O)n2-c1c(F)cccc1F	< 10 µM
COc1nc(-c2ccccc2F)c2ccc(=O)n(-c3c(F)cccc3F)c2n1	< 10 µM
CSc1nc(-c2ccccc2F)c2ccc(=O)n(C(C)C)c2n1	< 10 µM
COCCNC(=O)CNc1nc(-c2ccc(F)cc2C)c2ccc(=O)n(-c3c(F)cccc3F)c2n1	< 10 µM
Cc1cc(F)ccc1-c1nc(NC[C@@H](C)O)nc2c1ccc(=O)n2-c1c(F)cccc1F	< 10 µM
CCC(=O)NCCNc1nc(-c2ccc(F)cc2C)c2ccc(=O)n(-c3c(F)cccc3F)c2n1	< 10 µM
